Source: ChEMBL document CHEMBL1201862, “PubChem BioAssay data set” (2004)
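Assay format: 96-well plates, 48-hour exposure. GI50 is the concentration that inhibits growth by half.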 Calls of active or inactive are those of the source. Cut-off read from the data, not from the text of the source: active = GI50 up to about 1.1 µM and inactive = higher.

Legend:
Assay in all cases: DTP human tumour cell line panel, 48 h
Malme-3M = system: Malme-3M
COLO 205 = system: COLO 205
HCT-116 = system: HCT-116
RXF 393 = system: RXF 393
MOLT-4 = system: MOLT-4
HOP-18 = system: HOP-18
HCC 2998 = system: HCC 2998
OVCAR-3 = system: OVCAR-3
UACC-62 = system: UACC-62
UO-31 = system: UO-31
LOX IMVI = system: LOX IMVI
OVCAR-4 = system: OVCAR-4
K562 = system: K562
786-0 = system: 786-0
SF-295 = system: SF-295
SR = system: SR
A498 = system: A498
OVCAR-8 = system: OVCAR-8
SNB-19 = system: SNB-19
UACC-257 = system: UACC-257
HL-60 = system: HL-60
XF498 = system: XF498
SK-MEL-5 = system: SK-MEL-5
SF-539 = system: SF-539
ACHN = system: ACHN
SK-OV-3 = system: SK-OV-3
DMS-273 = system: DMS-273
U-251 = system: U-251
RPMI-8226 = system: RPMI-8226
NCI-H226 = system: NCI-H226
NCI-H23 = system: NCI-H23
IGROV-1 = system: IGROV-1
NCI-H522 = system: NCI-H522
KM12 = system: KM12
NCI-H460 = system: NCI-H460
A549 = system: A549
TK-10 = system: TK-10
LXFL 529 = system: LXFL 529
SNB-78 = system: SNB-78
DMS-114 = system: DMS-114
SK-MEL-28 = system: SK-MEL-28
SW-620 = system: SW-620
SN12C = system: SN12C
SF-268 = system: SF-268
HOP-92 = system: HOP-92
HT-29 = system: HT-29
SNB-75 = system: SNB-75
M14 = system: M14
OVCAR-5 = system: OVCAR-5
HOP-62 = system: HOP-62
KM-20L2 = system: KM-20L2
DLD-1 = system: DLD-1
CAKI-1 = system: CAKI-1
EKVX = system: EKVX
T47D = system: T47D
DU-145 = system: DU-145
MDA-N = system: MDA-N
NCI/ADR-RES = system: NCI/ADR-RES
PC-3 = system: PC-3
BT-549 = system: BT-549
MCF7 = system: MCF7
HCT-15 = system: HCT-15
CCRF-CEM = system: CCRF-CEM
MDA-MB-231 = system: MDA-MB-231
Hs-578T = system: Hs-578T
M19-MEL = system: M19-MEL
SK-MEL-2 = system: SK-MEL-2
MDA-MB-435 = system: MDA-MB-435

NC(=O)c1c([N+](=O)[O-])cc(C(F)(F)F)cc1[N+](=O)[O-]
GI50 (Malme-3M): 24.4 µM (inactive) | GI50 (COLO 205): 26.1 µM (inactive) | GI50 (HCT-116): 39 µM (inactive) | GI50 (RXF 393): > 100 µM (inactive) | GI50 (MOLT-4): > 100 µM (inactive) | GI50 (HOP-18): > 100 µM (inactive) | GI50 (HCC 2998): 38.4 µM (inactive) | GI50 (OVCAR-3): 24.9 µM (inactive) | GI50 (UACC-62): 35.1 µM (inactive) | GI50 (UO-31): > 100 µM (inactive) | GI50 (LOX IMVI): 51.2 µM (inactive) | GI50 (OVCAR-4): 68.2 µM (inactive) | GI50 (K562): 86.1 µM (inactive) | GI50 (786-0): > 100 µM (inactive) | GI50 (SF-295): > 100 µM (inactive) | GI50 (SR): > 100 µM (inactive) | GI50 (A498): > 100 µM (inactive) | GI50 (OVCAR-8): > 100 µM (inactive) | GI50 (SNB-19): > 100 µM (inactive) | GI50 (UACC-257): 27 µM (inactive) | GI50 (HL-60): 18 µM (inactive) | GI50 (XF498): > 100 µM (inactive) | GI50 (SK-MEL-5): 50 µM (inactive) | GI50 (SF-539): 45.7 µM (inactive) | GI50 (ACHN): > 100 µM (inactive) | GI50 (SK-OV-3): > 100 µM (inactive) | GI50 (DMS-273): 35.1 µM (inactive) | GI50 (U-251): > 100 µM (inactive) | GI50 (RPMI-8226): > 100 µM (inactive) | GI50 (NCI-H226): > 100 µM (inactive) | GI50 (NCI-H23): 29.8 µM (inactive) | GI50 (IGROV-1): > 100 µM (inactive) | GI50 (NCI-H522): 21.5 µM (inactive) | GI50 (KM12): 44 µM (inactive) | GI50 (NCI-H460): 47.4 µM (inactive) | GI50 (A549): 99.5 µM (inactive) | GI50 (TK-10): > 100 µM (inactive) | GI50 (LXFL 529): > 100 µM (inactive) | GI50 (SNB-78): > 100 µM (inactive) | GI50 (DMS-114): 26.9 µM (inactive) | GI50 (SK-MEL-28): > 100 µM (inactive) | GI50 (SW-620): 44.5 µM (inactive) | GI50 (SN12C): 52.4 µM (inactive) | GI50 (SF-268): > 100 µM (inactive) | GI50 (HOP-92): > 100 µM (inactive) | GI50 (HT-29): 41.7 µM (inactive) | GI50 (SNB-75): > 100 µM (inactive) | GI50 (M14): 76.6 µM (inactive) | GI50 (OVCAR-5): > 100 µM (inactive) | GI50 (HOP-62): > 100 µM (inactive) | GI50 (KM-20L2): 33.3 µM (inactive) | GI50 (DLD-1): > 100 µM (inactive) | GI50 (CAKI-1): > 100 µM (inactive) | GI50 (EKVX): > 100 µM (inactive)

COC(COC(N)=O)C1=C(N2CC2)C(=O)C(C)=C(N2CC2)C1=O (centres undefined) [CARBOQUONE]
GI50 (Malme-3M): 0.0692 µM (active) | GI50 (T47D): 0.0435 µM (active) | GI50 (COLO 205): 0.113 µM (active) | GI50 (HCT-116): 0.0284 µM (active) | GI50 (RXF 393): 0.107 µM (active) | GI50 (DU-145): < 0.01 µM (active) | GI50 (MOLT-4): 0.0418 µM (active) | GI50 (HOP-18): 0.199 µM (active) | GI50 (HCC 2998): 0.131 µM (active) | GI50 (OVCAR-3): 0.0607 µM (active) | GI50 (UACC-62): < 0.0156 µM (active) | GI50 (UO-31): 0.0307 µM (active) | GI50 (LOX IMVI): < 0.0144 µM (active) | GI50 (OVCAR-4): 0.126 µM (active) | GI50 (K562): 0.0352 µM (active) | GI50 (786-0): 0.0201 µM (active) | GI50 (MDA-N): 0.108 µM (active) | GI50 (SF-295): 0.0178 µM (active) | GI50 (SR): < 0.0221 µM (active) | GI50 (A498): 0.0904 µM (active) | GI50 (OVCAR-8): 0.0318 µM (active) | GI50 (SNB-19): 0.0646 µM (active) | GI50 (UACC-257): 0.126 µM (active) | GI50 (HL-60): < 0.0114 µM (active) | GI50 (NCI/ADR-RES): 0.0241 µM (active) | GI50 (PC-3): 0.213 µM (active) | GI50 (XF498): 0.154 µM (active) | GI50 (SK-MEL-5): 0.046 µM (active) | GI50 (SF-539): < 0.0198 µM (active) | GI50 (ACHN): < 0.01 µM (active) | GI50 (SK-OV-3): 0.0718 µM (active) | GI50 (BT-549): 0.103 µM (active) | GI50 (MCF7): < 0.01 µM (active) | GI50 (DMS-273): < 0.01 µM (active) | GI50 (U-251): 0.0366 µM (active) | GI50 (RPMI-8226): 0.117 µM (active) | GI50 (NCI-H226): 0.0719 µM (active) | GI50 (NCI-H23): < 0.0148 µM (active) | GI50 (IGROV-1): 0.197 µM (active) | GI50 (NCI-H522): 0.0377 µM (active) | GI50 (KM12): 0.122 µM (active) | GI50 (NCI-H460): < 0.01 µM (active) | GI50 (A549): 0.0185 µM (active) | GI50 (TK-10): 0.239 µM (active) | GI50 (LXFL 529): 0.196 µM (active) | GI50 (HCT-15): 0.0594 µM | GI50 (SNB-78): 0.574 µM (active) | GI50 (DMS-114): 0.063 µM (active) | GI50 (SK-MEL-28): 0.172 µM (active) | GI50 (SW-620): 0.0302 µM (active) | GI50 (CCRF-CEM): 0.0355 µM (active) | GI50 (SN12C): < 0.0266 µM (active) | GI50 (MDA-MB-231): 0.292 µM (active) | GI50 (SF-268): < 0.016 µM (active) | GI50 (Hs-578T): 0.218 µM (active) | GI50 (HOP-92): 0.219 µM (active) | GI50 (HT-29): 0.0342 µM (active) | GI50 (SNB-75): 0.0246 µM (active) | GI50 (M19-MEL): 0.0968 µM (active) | GI50 (M14): 0.0395 µM (active) | GI50 (SK-MEL-2): 0.193 µM (active) | GI50 (MDA-MB-435): 0.0359 µM (active) | GI50 (OVCAR-5): 0.106 µM (active) | GI50 (HOP-62): < 0.0154 µM (active) | GI50 (KM-20L2): 0.0608 µM (active) | GI50 (DLD-1): 0.113 µM (active) | GI50 (CAKI-1): < 0.0119 µM (active) | GI50 (EKVX): 0.47 µM (active)

Cc1ccc(N2C(=O)C3C=CC(n4[nH]c(=O)n(Cc5ccccc5)c4=O)CC3C2=O)cc1 (centres undefined)
GI50 (Malme-3M): > 100 µM (inactive) | GI50 (COLO 205): > 100 µM (inactive) | GI50 (HCT-116): > 100 µM (inactive) | GI50 (RXF 393): > 100 µM (inactive) | GI50 (MOLT-4): > 100 µM (inactive) | GI50 (HOP-18): > 100 µM (inactive) | GI50 (HCC 2998): > 100 µM (inactive) | GI50 (OVCAR-3): > 100 µM (inactive) | GI50 (UACC-62): > 100 µM (inactive) | GI50 (UO-31): > 100 µM (inactive) | GI50 (LOX IMVI): > 100 µM (inactive) | GI50 (K562): > 100 µM (inactive) | GI50 (786-0): > 100 µM (inactive) | GI50 (SF-295): > 100 µM (inactive) | GI50 (SR): > 100 µM (inactive) | GI50 (A498): > 100 µM (inactive) | GI50 (OVCAR-8): > 100 µM (inactive) | GI50 (SNB-19): > 100 µM (inactive) | GI50 (UACC-257): > 100 µM (inactive) | GI50 (HL-60): > 100 µM (inactive) | GI50 (XF498): > 100 µM (inactive) | GI50 (SK-MEL-5): > 100 µM (inactive) | GI50 (SF-539): > 100 µM (inactive) | GI50 (ACHN): > 100 µM (inactive) | GI50 (SK-OV-3): > 100 µM (inactive) | GI50 (DMS-273): > 100 µM (inactive) | GI50 (U-251): > 100 µM (inactive) | GI50 (RPMI-8226): > 100 µM (inactive) | GI50 (NCI-H226): > 100 µM (inactive) | GI50 (NCI-H23): > 100 µM (inactive) | GI50 (IGROV-1): > 100 µM (inactive) | GI50 (NCI-H522): > 100 µM (inactive) | GI50 (KM12): > 100 µM (inactive) | GI50 (NCI-H460): > 100 µM (inactive) | GI50 (A549): > 100 µM (inactive) | GI50 (TK-10): > 100 µM (inactive) | GI50 (LXFL 529): > 100 µM (inactive) | GI50 (HCT-15): > 100 µM | GI50 (SNB-78): > 100 µM (inactive) | GI50 (DMS-114): > 100 µM (inactive) | GI50 (SK-MEL-28): > 100 µM (inactive) | GI50 (SW-620): > 100 µM (inactive) | GI50 (CCRF-CEM): > 100 µM (inactive) | GI50 (SN12C): > 100 µM (inactive) | GI50 (SF-268): > 100 µM (inactive) | GI50 (HOP-92): > 100 µM (inactive) | GI50 (HT-29): > 100 µM (inactive) | GI50 (SNB-75): 74.6 µM (inactive) | GI50 (M19-MEL): > 100 µM (inactive) | GI50 (M14): > 100 µM (inactive) | GI50 (SK-MEL-2): > 100 µM (inactive) | GI50 (OVCAR-5): > 100 µM (inactive) | GI50 (HOP-62): > 100 µM (inactive) | GI50 (KM-20L2): > 100 µM (inactive) | GI50 (DLD-1): > 100 µM (inactive) | GI50 (CAKI-1): > 100 µM (inactive) | GI50 (EKVX): > 100 µM (inactive)
